Data taken from article PMC11356900, “Synthesis, Structural Properties and Biological Activities of Novel Hydrazones of 2-, 3-, 4-Iodobenzoic Acid” (Molecules, 2024).
In brackets after ≈: the same amount, converted by molar mass. Read-outs that look alike come from different tables or passages of the source.

Tests used:
[1] = tested on: Candida glabrata ATCC 90030; test: Broth microdilution MIC/MFC; assay type: cell-based
From the text: (§1) Procedures of in vitro antimicrobial assays are described in Supplementary Materials.
(§2) 2. Microbiology – in vitro antimicrobial activity assays […]
(§3) using the broth microdilution method according to the European Committee on Antimicrobial Susceptibility Testing (EUCAST) and Clinical and Laboratory Standards Institute guidelines against a panel of reference and clinical or saprophytic strains of mi croorganisms, including the Gram-positive bacteria: Staphylococcus aureus ATCC 43300 (Methi-cillin Resistant S. aureus – MRSA), Staphylococcus aureus ATCC 29213 (Methicillin Susceptible S. aureus – MSSA), Staph-ylococcus epidermidis ATCC 12228, Micrococcus luteus ATCC 10240, Bacillus subtilis ATCC 6633 and Bacillus cereus ATCC 10876), Gram-negative bacteria: Bordetella bronchiseptica ATCC 4617, Escherichia coli ATCC 25922, Klebsiella pneumoniae ATCC 13883, Proteus mirabilis ATCC 12453, Salmonella typhimurium ATCC 14028 and Pseudomonas aeruginosa ATCC 9027, and fungi belonging to yeasts: Candida albicans ATCC 10231, Candida albicans ATCC 2091, Candida parapsilosis ATCC 22019, Candida glabrata ATCC 90030 and Candida krusei ATCC 14243. The microorganisms belonging to ATCC originated from American Type Culture Collection, routinely used for the evaluation of antimicrobials. All the used microbial cultures were first subcultured on nutrient agar or Sabouraud agar at 35°C for 18-24 h or 30°C for 24-48 h for bacteria […]
(§4) The surface of Mueller-Hinton agar (for bacteria) and RPMI 1640 with MOPS (for fungi) were inoculated with the suspensions of bacterial or fungal species. Microbial suspensions were prepared in sterile saline with an optical density of McFarland standard scale 0.5. The samples containing the compounds were dissolved in dimethyl sulfoxide (DMSO).
(§5) Furthermore, the bacterial and fungal suspensions put onto the Petri dishes with solid media containing 2 mg/mL of the tested compounds followed were incubated at 37°C for 24h and 30°C for 48h for bacteria and fungi, respectively.
(§6) The inhibition of microbial growth was estimated comparing with a control culture prepared without any tested sam- […]
(§7) antifungal compounds, respectively.
(§8) Subsequently, MIC (Minimal Inhibitory Concentration) of the compounds was examined by the microdilution broth method, using their two-fold dilutions in Mueller-Hinton broth (for bacteria) and RPMI 1640 broth with MOPS (for fungi) prepared in the 96-well polystyrene plates. The final concentrations of the compounds ranged from 1000 to 0.488 µg/mL. Microbial suspensions were prepared in 0.85% NaCl with an optical density of 0.5 McFarland standard. Next each bacterial or fungal suspension was added per each well containing broth and various concentrations of the exam-ined compounds. After incubation, the MIC was assessed spectrophotometrically as the lowest concentration of the […]
(§9) Appropriate DMSO, growth and sterile controls were carried out. The medium with no tested substances was used as a control The MBC (Minimal Bactericidal Concentration) and MFC (Minimal Fungicidal Concentration) are defined as the lowest concentration of the compounds that is required to kill a particular bacterial or fungal species. The MBC/MFC was determined by removing the culture used for the MIC determination from each well and spotted onto the appro-priate agar medium. The plates were incubated under appropriate conditions for bacteria and fungi. The lowest com-pounds concentration with no visible growth observed was assessed as a bactericidal/fungicidal concentration. All the experiments were repeated three times and the representative data are presented.
(§10) 1. European Committee for Antimicrobial Susceptibility Testing (EUCAST) Determination of minimum inhibitory con-centrations (MICs) of antibacterial agents by broth dilution. EUCAST discussion document E. Dis 5.1. Clin. Microbiol.
(§11) 2. Clinical and Laboratory Standards Institute. Reference method for broth dilution antifungal susceptibility testing of […]

[2] = tested on: Candida krusei ATCC 14243; test: Broth microdilution MIC/MFC; assay type: cell-based
From the text: as §1, §2, §3, §4, §5, §6, §7, §8, §9, §10, §11

[3] = tested on: Candida parapsilosis ATCC 22019; test: Broth microdilution MIC/MFC; assay type: cell-based
From the text: as §1, §2, §3, §4, §5, §6, §7, §8, §9, §10, §11

[4] = tested on: Candida albicans ATCC 10231; test: Broth microdilution MIC/MFC; assay type: cell-based
From the text: as §1, §2, §3, §4, §5, §6, §7, §8, §9, §10, §11

[5] = tested on: Candida albicans ATCC 2091; test: Broth microdilution MIC/MFC; assay type: cell-based
From the text: as §1, §2, §3, §4, §5, §6, §7, §8, §9, §10, §11

[6] = tested on: Bacillus subtilis ATCC 6633; test: Broth microdilution MIC/MBC; details: ATCC6633
Gram-positive bacteria = test: Broth microdilution, summary over reference Gram-positive bacteria; assay type: cell-based; details: for antibacterial activity in words: reference Gram-positive bacteria / studied bacteria
From the text: as §1, §2, §3, §4, §5, §6, §7, §8, §9, §10, §11

Candida spp. = test: Broth microdilution, summary over reference yeasts; assay type: cell-based; details: for antifungal activity in words: reference yeasts from Candida spp.
From the text: as §1, §2, §3, §4, §5, §6, §7, §8, §9, §10, §11

[7] = tested on: Bacillus cereus ATCC 10876; test: Broth microdilution MIC/MBC; details: Bacillus cereus, ATCC10876
[8] = tested on: Staphylococcus epidermidis ATCC 12228; test: Broth microdilution MIC/MBC; details: ATCC12228
[9] = tested on: Staphylococcus aureus ATCC 43300; test: Broth microdilution MIC/MBC; details: ATCC43300 / MRSA
[10] = tested on: Staphylococcus aureus ATCC 25923; test: Broth microdilution MIC/MBC; details: Staphylococcus aureus, ATCC25923
[11] = tested on: Staphylococcus aureus ATCC 29213; test: Broth microdilution MIC/MBC; details: ATCC29213
[12] = tested on: Micrococcus luteus ATCC 10240; test: Broth microdilution MIC/MBC; details: Micrococcus luteus, ATCC10240
[13] = Nakaseomyces glabratus, ATCC90030, read-out: MIC
[14] = Pichia kudriavzevii, ATCC14243, read-out: MFC
[15] = Pichia kudriavzevii, ATCC14243, read-out: MIC
[16] = Lodderomyces parapsilosis, ATCC22019, read-out: MIC
[17] = Nakaseomyces glabratus, ATCC90030, read-out: MFC
[18] = range over the reference Candida spp. strains

SMILES	MIC [6] [µg/mL]	antibacterial activity in words (Gram-positive bacteria)	melting point [°C]	antifungal activity in words (Candida spp.)	MIC [7] [µg/mL]	MBC [8] [µg/mL]	MIC [8] [µg/mL]	MIC [1, 13] [µg/mL]	MIC [2, 15] [µg/mL]	MIC [3, 16] [µg/mL]	MFC ([4]; ATCC10231, read-out: MFC) [µg/mL]	MIC ([4]; ATCC10231, read-out: MIC) [µg/mL]	MIC ([5]; ATCC2091, read-out: MIC) [µg/mL]	MIC [9] [µg/mL]	MBC [10] [µg/mL]	MIC [10] [µg/mL]	MIC [11] [µg/mL]	MBC [12] [µg/mL]	MIC [12] [µg/mL]	also measured
C[C@@H]1[C@H](O)[C@@H](C)/C=C/C=C/CC/C=C/C=C/C=C/C=C/C(O[C@H]2O[C@H](C)[C@@H](O)[C@H](N)[C@@H]2O)CC2O[C@](O)(CC(O)C(O)CCC(O)CC(O)CC(O)CC(=O)O[C@H]1C)CC(O)C2C(=O)O (some centres unmarked) [NY*, nystatin, reference compound]																				MFC [1]: 0.48 µg/mL (≈ 0.518 µM); MFC/MIC [1]: 2; MIC [1]: 0.24 µg/mL (≈ 0.259 µM); MFC [2]: 0.24 µg/mL (≈ 0.259 µM); MFC/MIC [2]: 1; MIC [2]: 0.24 µg/mL (≈ 0.259 µM); MFC [3]: 0.48 µg/mL (≈ 0.518 µM); MFC/MIC [3]: 2; MIC [3]: 0.24 µg/mL (≈ 0.259 µM); MFC [4]: 0.48 µg/mL (≈ 0.518 µM); MFC/MIC [4]: 1; MIC [4]: 0.48 µg/mL (≈ 0.518 µM); MFC [5]: 0.24 µg/mL (≈ 0.259 µM); MFC/MIC [5]: 1; MIC [5]: 0.24 µg/mL (≈ 0.259 µM)
CC1(C)S[C@@H]2[C@H](NC(=O)[C@H](N)c3ccccc3)C(=O)N2[C@H]1C(=O)O [APC, ampicillin, reference compound]	62.5 (≈ 179 µM)																			
O=C(N/N=C/c1ccccc1O)c1cccc(I)c1 [Compound 16, N-[(2-hydroxyphenyl)methylidene]-3-iodobenzohydrazide]		no activity	201 to 203																	
NNC(=O)c1ccccc1I [Compound 4, 2-iodobenzohydrazide]	> 1000		182 to 189	mild activity or were inactive	> 1000	> 1000	1000 (≈ 3820 µM)	> 1000	1000 (≈ 3820 µM)	> 1000	> 1000	1000 (≈ 3820 µM)	> 1000	> 1000	> 1000	500 (≈ 1910 µM)	> 1000	> 1000	1000 (≈ 3820 µM)	MFC [2, 14]: > 1000 µg/mL
CO/N=C(\C(=O)N[C@@H]1C(=O)N2C(C(=O)O)=C(COC(N)=O)CS[C@H]12)c1ccco1 [CFX, cefuroxime, reference compound]	15.6 (≈ 36.8 µM)				31.2 (≈ 73.6 µM)		0.24 (≈ 0.566 µM)									0.49 (≈ 1.15 µM)			0.98 (≈ 2.31 µM)	
O=C(N/N=C/c1cc(O)ccc1O)c1ccccc1I [Compound 11, N-[(2,5-dihydroxyphenyl)methylidene]-2-iodobenzohydrazide]	> 1000	no antimicrobial effect	211 to 214	mild activity or were inactive	> 1000		> 1000	1000 (≈ 2620 µM)	> 1000	> 1000	> 1000	1000 (≈ 2620 µM)	> 1000	> 1000		> 1000	> 1000		> 1000	MFC [1, 17]: > 1000 µg/mL
O=C(N/N=C/c1cc(Cl)cc(I)c1O)c1ccccc1I [Compound 12, N-[(5-chloro-2-hydroxy-3-iodophenyl)methylidene]-2-iodobenzohydrazide]	1000 (≈ 1900 µM)		215 to 220	moderate or mild	500 (≈ 950 µM)	500 (≈ 950 µM)	250 (≈ 475 µM)	250 (≈ 475 µM)	500 (≈ 950 µM)	1000 (≈ 1900 µM)	> 1000	500 (≈ 950 µM)	500 (≈ 950 µM)	1000 (≈ 1900 µM)	> 1000	125 (≈ 237 µM)	1000 (≈ 1900 µM)	250 (≈ 475 µM)	31.2 (≈ 59.4 µM)	MFC (Candida spp.; [18]): ≥ 1000 µg/mL; MIC (Candida spp.; [18]): 250 to 1000 µg/mL (≈ 475 to 1900 µM); MBC [6]: > 1000 µg/mL; MBC [7]: > 1000 µg/mL; MFC [1, 17]: > 1000 µg/mL; MFC [2, 14]: > 1000 µg/mL; MFC ([3]; Lodderomyces parapsilosis, ATCC22019, read-out: MFC): > 1000 µg/mL; MFC ([5]; ATCC2091, read-out: MFC): > 1000 µg/mL; MIC (Gram-positive bacteria; range over the reference Gram-positive bacteria, read-out: MIC): 31.2 to 1000 µg/mL (≈ 59.4 to 1900 µM); MBC [9]: > 1000 µg/mL; MBC [11]: > 1000 µg/mL
O=C(N/N=C/c1cccc([N+](=O)[O-])c1O)c1ccccc1I [Compound 7, N-[(2-hydroxy-3-nitrophenyl)methylidene]-2-iodobenzohydrazide]	1000 (≈ 2430 µM)		240 to 245	mild activity or were inactive	> 1000	1000 (≈ 2430 µM)	125 (≈ 304 µM)	> 1000	> 1000	> 1000	> 1000	1000 (≈ 2430 µM)	> 1000	> 1000	> 1000	500 (≈ 1220 µM)	> 1000	> 1000	1000 (≈ 2430 µM)	MBC [6]: > 1000 µg/mL
O=C(N/N=C/c1cccc([N+](=O)[O-])c1O)c1ccc(I)cc1 [Compound 22, N-[(2-hydroxy-3-nitrophenyl)methylidene]-4-iodobenzohydrazide]		No antimicrobial effect	198 to 202	no antifungal activity																
